Measurements from patent US20150210641A1, “NOVEL CYTOCHROME P450 INHIBITORS AND THEIR METHOD OF USE” (CORTENDO AB (PUBL), priority 2014, published 2015).

Assays:
Type in all cases: cell-based
recombinant CYP-11 = biological target: T1, recombinant CYP-11 (Homo sapiens, UniProt P15538); test: Cyp11 assay: cortisol formation from 11-deoxycortisol in AD293 cells, LC/MS; conditions: AD293 cells stably over-expressing recombinant CYP-11; eight concentrations 10 μM to 4.5 nM
T1 construct: expressed in transfected cells
T1 sequence (P15538 25-503): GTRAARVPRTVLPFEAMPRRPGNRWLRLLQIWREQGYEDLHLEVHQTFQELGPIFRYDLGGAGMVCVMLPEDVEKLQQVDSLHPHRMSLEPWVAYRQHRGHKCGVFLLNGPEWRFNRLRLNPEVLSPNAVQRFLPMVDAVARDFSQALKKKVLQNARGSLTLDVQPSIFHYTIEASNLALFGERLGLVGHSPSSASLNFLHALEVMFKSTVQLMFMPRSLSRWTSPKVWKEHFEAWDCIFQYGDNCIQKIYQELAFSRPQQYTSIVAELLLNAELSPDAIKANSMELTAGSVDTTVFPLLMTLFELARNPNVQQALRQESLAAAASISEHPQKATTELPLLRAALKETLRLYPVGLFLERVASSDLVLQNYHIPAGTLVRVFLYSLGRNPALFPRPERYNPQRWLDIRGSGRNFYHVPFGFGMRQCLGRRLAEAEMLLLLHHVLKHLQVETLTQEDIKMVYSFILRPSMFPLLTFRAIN
Method: Cyp11 assay protocol: AD293 cells that stably over-express recombinant CYP-11 were seeded in 96 well plates coated with poly D-lysine (15,000 cell per well) and incubated at 37° C. for 24 hours in Dulbecco's Modified Eagle Medium (DMEM) with Fetal Bovine Serum (FBS) that is stripped of hormones by charcoal treatment. The media is then removed, the cells are washed once with Phosphate buffer saline solution, and 50 μL Dulbecco's Modified Eagle Medium (DMEM) with Fetal Bovine Serum (FBS) that is stripped of hormones by charcoal treatment is added. Compounds of the disclosure are then added to the wells in eight concentration spanning 10 μM to 4.5 nM, and the plates are incubated for an additional 60 minutes at 37° C. 11-deoxycortisol is then added ([…]) and the plates are incubated for an additional 12 hours at 37° C. After incubation, 50 uL of the supernatant (medium) is transferred into a fresh plate and 150 uL of an acetonitrile solution containing 200 ng/ml of Telmisartan is added. The sample is mixed and then placed in a centrifuge at 2000 rpm for 5 minutes. 100 uL of the supernatant is transferred into a fresh 96 well deep well plate, 100 uL of 1:1 methanol: water was added, the solution was mixed and then analyzed by LC/MS for the presence of cortisol using an Agilent 1200 RRLC/ABSCIEX API4000 LC-MS or Shimadzu Prominance/ABSCIEX API4000 LC-MS to determine IC50s of the compounds of the disclosure.

recombinant CYP-17 = biological target: T2, recombinant CYP-17 (Homo sapiens, UniProt P05093); test: Cyp17 assay: 3H-acetic acid release from [21-3H] 17α-hydroxyl-Pregnenolone in AD293 cells; conditions: AD293 cells stably over-expressing recombinant CYP-17; eight concentrations 10 μM to 4.5 nM
T2 construct: expressed in transfected cells
T2 sequence (P05093 1-508): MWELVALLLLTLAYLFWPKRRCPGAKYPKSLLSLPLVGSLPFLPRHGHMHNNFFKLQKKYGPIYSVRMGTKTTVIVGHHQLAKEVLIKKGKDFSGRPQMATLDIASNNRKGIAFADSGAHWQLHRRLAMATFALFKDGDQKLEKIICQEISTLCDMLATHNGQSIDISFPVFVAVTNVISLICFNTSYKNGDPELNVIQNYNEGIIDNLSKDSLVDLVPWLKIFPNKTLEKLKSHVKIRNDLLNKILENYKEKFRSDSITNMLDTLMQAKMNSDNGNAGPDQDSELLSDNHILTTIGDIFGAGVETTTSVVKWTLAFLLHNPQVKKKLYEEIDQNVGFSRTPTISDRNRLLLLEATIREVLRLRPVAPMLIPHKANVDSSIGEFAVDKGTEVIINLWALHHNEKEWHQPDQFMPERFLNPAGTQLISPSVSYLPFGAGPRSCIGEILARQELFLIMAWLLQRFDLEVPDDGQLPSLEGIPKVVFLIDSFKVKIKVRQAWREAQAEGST
Method: Cyp17 assay protocol: AD293 cells that stably over-express recombinant CYP-17 were seeded in 96 well plates coated with poly D-lysine (15,000 cell per well) and incubated at 37° C. for 24 hours in Dulbecco's Modified Eagle Medium (DMEM) with Fetal Bovine Serum (FBS) that is stripped of hormones by charcoal treatment. The media is then removed, the cells are washed once with Phosphate buffer saline solution, and 50 μL Dulbecco's Modified Eagle Medium (DMEM) with Fetal Bovine Serum (FBS) that is stripped of hormones by charcoal treatment is added. Compounds of the disclosure are then added to the wells in eight concentration spanning 10 μM to 4.5 nM, and the plates are incubated for an additional 60 minutes at 37° C. [21-^3H] 17α-hydroxyl-Pregnenolone is then added (50 nCi per well, 31.25 nM) and the plates are incubated for an additional 4 hours at 37° C. The media is then collected, 200 μL of chloroform is added, and the mixture is shaken for 1 hour. The aqueous layer is then separated and analyzed for the presence of ^3H-acetic acid using a Perkin Elmer Topcount NXT to determine IC50s of the compounds of the disclosure.

recombinant CYP-21 = biological target: T3, recombinant CYP-21 (Homo sapiens, UniProt P08686); test: Cyp21 assay: 11-deoxycortisol formation from 17-OH Progesterone in AD293 cells, LC/MS; conditions: AD293 cells stably over-expressing recombinant CYP-21; eight concentrations 10 μM to 4.5 nM
T3 construct: expressed in transfected cells
T3 sequence (P08686 1-495): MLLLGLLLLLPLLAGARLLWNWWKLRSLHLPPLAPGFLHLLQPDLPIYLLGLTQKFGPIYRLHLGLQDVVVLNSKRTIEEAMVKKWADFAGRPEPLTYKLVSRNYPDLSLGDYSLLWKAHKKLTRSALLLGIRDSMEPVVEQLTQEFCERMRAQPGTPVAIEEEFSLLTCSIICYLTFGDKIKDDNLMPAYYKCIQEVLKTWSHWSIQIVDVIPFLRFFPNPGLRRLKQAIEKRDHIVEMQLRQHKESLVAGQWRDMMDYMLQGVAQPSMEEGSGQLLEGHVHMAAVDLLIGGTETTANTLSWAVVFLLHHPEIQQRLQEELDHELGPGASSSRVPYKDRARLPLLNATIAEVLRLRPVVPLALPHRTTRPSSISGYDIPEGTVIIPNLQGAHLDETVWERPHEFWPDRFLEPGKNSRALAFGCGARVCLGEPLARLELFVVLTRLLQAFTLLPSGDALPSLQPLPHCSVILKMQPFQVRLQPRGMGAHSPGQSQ
Method: Cyp21 assay protocol: AD293 cells that stably over-express recombinant CYP-21 were seeded in 96 well plates coated with poly D-lysine (10,000 cell per well) and incubated at 37° C. for 24 hours in Dulbecco's Modified Eagle Medium (DMEM) with Fetal Bovine Serum (FBS) that is stripped of hormones by charcoal treatment. The media is then removed, the cells are washed once with Phosphate buffer saline solution, and 50 μL Dulbecco's Modified Eagle Medium (DMEM) with Fetal Bovine Serum (FBS) that is stripped of hormones by charcoal treatment is added. Compounds of the disclosure are then added to the wells in eight concentration spanning 10 μM to 4.5 nM, and the plates are incubated for an additional 60 minutes at 37° C. 17-OH Progesterone is then added ([…]) and the plates are incubated for an additional 45 minutes at 37° C. After incubation, 50 uL of the supernatant (medium) is transferred into a fresh plate and 150 uL of an acetonitrile solution containing 200 ng/ml of Telmisartan is added. The sample is mixed and then placed in a centrifuge at 2000 rpm for 5 minutes.

Compound	IC50 (recombinant CYP-11)	IC50 (recombinant CYP-17)	IC50 (recombinant CYP-21)
COc1cccc(-c2ccc(C(c3ccncc3)N3CCNCC3)cc2)c1 (stereo not drawn) [Entry 32, 1-((3′-methoxy-[1,1′-biphenyl]-4-yl)(pyridin-4-yl)methyl)piperazine]	≥ 10000 nM	1170 nM	≥ 10000 nM
COc1cc(F)ccc1-c1ccc(C(c2ccncc2)N2CCC(O)CC2)cc1 (stereo not drawn) [Entry 29, 1-((4′-fluoro-2′-methoxy-[1,1′-biphenyl]-4-yl)(pyridin-4-yl)methyl)piperidin-4-ol]	≥ 10000 nM	12 nM	4000 nM
COc1cc(F)ccc1-c1ccc(C(F)(F)c2ccncc2)cc1 [Entry 2, 4-[Difluoro-(4′-fluoro-2′-methoxy-biphenyl-4-yl)-methyl]-pyridine]	≥ 10000 nM	2200 nM	236 nM
COc1cc(F)ccc1-c1ccc(C(c2ccncc2)N2CCN(c3ccccc3C#N)CC2)cc1 (stereo not drawn) [Entry 24, 2-(4-((4′-fluoro-2′-methoxy-[1,1′-biphenyl]-4-yl)(pyridin-4-yl)methyl)piperazin-1-yl)benzonitrile]	≥ 10000 nM	192 nM	≥ 10000 nM
COc1cc(F)ccc1-c1ccc(C(c2ccncc2)N2CCNCC2)cc1 (stereo not drawn) [Entry 30, 1-((4′-fluoro-2′-methoxy-[1,1′-biphenyl]-4-yl)(pyridin-4-yl)methyl)piperazine]	≥ 10000 nM	1000 nM	≥ 10000 nM

Next, values leading:

IC50 (recombinant CYP-11)	IC50 (recombinant CYP-17)	IC50 (recombinant CYP-21)	Compound
≥ 10000 nM	28 nM	≥ 10000 nM	COc1cc(F)ccc1-c1ccc(C(c2ccncc2)N2CCOCC2)cc1 (stereo not drawn) [Entry 17, 4-((4′-fluoro-2′-methoxy-[1,1′-biphenyl]-4-yl)(pyridin-4-yl)methyl)morpholine]
≥ 10000 nM	22 nM	≥ 10000 nM	COc1cc(F)ccc1-c1ccc(C(c2ccncc2)N2CCN(C(C)=O)CC2)cc1 (stereo not drawn) [Entry 27, 1-(4-((4′-fluoro-2′-methoxy-[1,1′-biphenyl]-4-yl)(pyridin-4-yl)methyl)piperazin-l-yl)ethanone]
≥ 10000 nM	107 nM	≥ 10000 nM	COc1cc(F)ccc1-c1ccc(C(c2ccncc2)N2CCN(C)CC2)cc1 (stereo not drawn) [Entry 20, 1-((4′-fluoro-2′-methoxy-[1,1′-biphenyl]-4-yl)(pyridin-4-yl)methyl)-4-methylpiperazine]
≥ 10000 nM	600 nM	2200 nM	COc1cc(F)ccc1-c1ccc(C2(c3ccncc3)OCC(C)(C)CO2)cc1 [Entry 6, 4-[2-(4′-Fluoro-2′-methoxy-biphenyl-4-yl)-5,5-dimethyl-[1,3]dioxan-2-yl]-pyridine]
≥ 10000 nM	43 nM	≥ 10000 nM	COc1cc(F)ccc1-c1ccc(C(c2ccncc2)N2CCN(c3ccccn3)CC2)cc1 (stereo not drawn) [Entry 23, 1-((4′-fluoro-2′-methoxy-[1,1′-biphenyl]-4-yl)(pyridin-4-yl)methyl)-4-(pyridin-2-yl)piperazine]
1400 nM	23 nM	565 nM	COc1ccc(-c2ccc(C3(c4ccncc4)OCCO3)cc2)cc1OC [Entry 16, 4-[2-(3′,4′-dimethoxy-biphenyl-4-yl)-[1,3]dioxolan-2-yl]-pyridine]
≥ 10000 nM	900 nM	≥ 10000 nM	COc1cc(F)ccc1-c1ccc(C(c2ccncc2)N2CCN(C3CCCC3)CC2)cc1 (stereo not drawn) [Entry 21, 1-cyclopentyl-4-((4′-fluoro-2′-methoxy-[1,1′-biphenyl]-4-yl)(pyridin-4-yl)methyl)piperazine]
4200 nM	31 nM	4000 nM	COc1cc(F)ccc1-c1ccc(C(NCCNC(=O)OC(C)(C)C)c2ccncc2)cc1 (stereo not drawn) [Entry 25, tert-butyl(2-(((4′-fluoro-2′-methoxy-[1,1′-biphenyl]-4-yl)(pyridin-4-yl)methyl)amino)ethyl)carbamate]
